Results: US9961848B2, “Soybean event 127 and methods related thereto” (EMPRESA BRASILEIRA DE PESQUISA AGROPECUARIA—EMBRAPA, priority 2009, dated 2018)

Columns and labels:
Assay type in all cases: in vivo
[1] = test system: BOILF = Spermacoce latifolia; experiment: Field weed control, early post-emergence application; settings: gai/ha Imazapyr 72, Imazapyr + imazapic 70, Glyphosate 540
[2] = test system: COMBE = Commelina benghalensis; experiment: as above; settings: gai/ha Imazapyr 72, Imazapyr + imazapic 70, Glyphosate 540
[3] = test system: EPHHL = Euphorbia heterophylla; experiment: as above; settings: gai/ha Imazapyr 72, Imazapyr + imazapic 70, Glyphosate 540
SIDRH = Sida rombifolia = experiment: as above; settings: gai/ha Imazapyr 72, Imazapyr + imazapic 70, Glyphosate 540
[4] = test system: RCHBR = Richardia brasiliensis; experiment: as above; settings: gai/ha Imazapyr 72, Imazapyr + imazapic 70, Glyphosate 540
[5] = test system: IPOGR = Ipomoea grandifolia; experiment: as above; settings: gai/ha Imazapyr 72, Imazapyr + imazapic 70, Glyphosate 540
[6] = test system: BRAPL = Brachiaria plantaginea; experiment: Field weed control, burn down application; settings: burn down 5 days before planting, g ai/ha Glyphosate 1080, Imazapic 70, Imazapic + imazapyr 70
Text: (§3) All the procedures from planting to harvest were the same for all three locations. The herbicides were applied at burn down five days before the soybean planting.
(§4) A completely randomized block design with three replications was used.
(§5) Imidazolinone-tolerant soybean derived from event 127 was planted 5 cm deep at population of 380,000 seeds/ha in 50 cm row spacing. The imidazolinones herbicides were applied with a nonionic adjuvant, Dash, at 0.25% v/v. A CO^2 backpack sprayer with 80015 low pressure nozzles delivering 170 l/ha at 190 kpa was used for all herbicide applications (Table 18).
(§6) Crop injury was assessed 15 and 30 days after planting (DAP) based on a 0 to 100 scale where 0 is no injury and 100 is crop death. Herbicide efficacy was assessed at 15, 30 and 60 DAP based on a 0 to 100 scale, where 0 is no control and 100 is total control.

[7] = test system: DIGHO = Digitaria horizontalis; experiment: Field weed control, burn down application; settings: burn down 5 days before planting, g ai/ha Glyphosate 1080, Imazapic 70, Imazapic + imazapyr 70
Text: as §3, §4, §5, §6

[8] = test system: COMBE = Commelina benghalensis; experiment: Field weed control, burn down application; settings: burn down 5 days before planting, g ai/ha Glyphosate 1080, Imazapic 70, Imazapic + imazapyr 70
Text: as §3, §4, §5, §6

[9] = test system: EPHHL = Euphorbia heterophylla; experiment: Field weed control, burn down application; settings: burn down 5 days before planting, g ai/ha Glyphosate 1080, Imazapic 70, Imazapic + imazapyr 70
Text: as §3, §4, §5, §6

[10] = test system: IPOGR = Ipomoea grandifolia; experiment: Field weed control, burn down application; settings: burn down 5 days before planting, g ai/ha Glyphosate 1080, Imazapic 70, Imazapic + imazapyr 70
Text: as §3, §4, §5, §6

[11] = test system: GASPA = Galinsoga parviflora; experiment: Field weed control, burn down application; settings: burn down 5 days before planting, g ai/ha Glyphosate 1080, Imazapic 70, Imazapic + imazapyr 70
Text: as §3, §4, §5, §6

BIDPI = Bidens pilosa = experiment: Field weed control, burn down application; settings: burn down 5 days before planting, g ai/ha Glyphosate 1080, Imazapic 70, Imazapic + imazapyr 70
Text: as §3, §4, §5, §6

[12] = test system: glyphosate resistant corn; experiment: Greenhouse injury rate, postemergence application; settings: 14 DAT
Procedure: (§1) Greenhouse studies were conducted to determine whether imidazolinone herbicides could be used in the control of undesired glyphosate tolerant weeds and crops growing in a cultivated area. […] Plants were maintained in a greenhouse with overhead watering.
(§2) Postemergence sprays were conducted at the 2-true leaf stage for corn and soybean and at the 9-true leaf stage for horseweed. […] The percent overall injury rate was visually determined 14 days after treatment (DAT) and 25 days after treatment (DAT). […] The results of the postemergence tests are summarized in Table 20 and the results of the pre-emergence study are summarized in Table 21. Results are provided as averages of the 5 individual plants.

[13] = test system: glyphosate resistant horseweed; experiment: Greenhouse injury rate, postemergence application
Procedure: as §1, §2

[14] = test system: glyphosate resistant soybean; experiment: Greenhouse injury rate, postemergence application; settings: 14 DAT
Procedure: as §1, §2

[15] = test system: glyphosate resistant corn; experiment: Greenhouse injury rate, preemergence application; settings: 14 DAT
Procedure: as §1, §2

[16] = test system: glyphosate resistant horseweed; experiment: Greenhouse injury rate, preemergence application; settings: 25 DAT
Procedure: as §1, §2

[17] = test system: glyphosate resistant soybean; experiment: Greenhouse injury rate, preemergence application; settings: 14 DAT
Procedure: as §1, §2

CYPRO = Cyperus rotundus [18] = experiment: Field weed control, burn down application; settings: burn down 5 days before planting, g ai/ha Glyphosate 1080, Imazapic 70, Imazapic + imazapyr 70
Text: as §3, §4, §5, §6

CYPRO = Cyperus rotundus [19] = experiment: Field weed control, early post-emergence application; settings: gai/ha Imazapyr 72, Imazapyr + imazapic 70, Glyphosate 540

## O=C(O)CNCP(=O)(O)O [Glyphosate, glyphosate]
[1]; 15 DAT
  Efficacy: 82%
[1]; 30 DAT
  Efficacy: 75%
[1]; 60 DAT
  Efficacy: 68%
[2]; 15 DAT
  Efficacy: 70%
[2]; 30 DAT
  Efficacy: 61%
[2]; 60 DAT
  Efficacy: 50%
[3]; 15 DAT
  Efficacy: 85%
[3]; 30 DAT
  Efficacy: 77%
[3]; 60 DAT
  Efficacy: 72%
SIDRH = Sida rombifolia; 15 DAT
  Efficacy: 82%
SIDRH = Sida rombifolia; 30 DAT
  Efficacy: 77%
SIDRH = Sida rombifolia; 60 DAT
  Efficacy: 70%
[4]; 15 DAT
  Efficacy: 78%
[4]; 30 DAT
  Efficacy: 57%
[5]; 15 DAT
  Efficacy: 90%
[5]; 30 DAT
  Efficacy: 87%
[5]; 60 DAT
  Efficacy: 73%
[6]; 60 DAT
  Efficacy (%): 25%
[7]; 30 DAT
  Efficacy (%): 60%
[7]; 60 DAT
  Efficacy (%): 41%
[8]; 30 DAT
  Efficacy (%): 38%
[8]; 60 DAT
  Efficacy (%): 22%
[9]; 30 DAT
  Efficacy (%): 15%
[9]; 60 DAT
  Efficacy (%): 7%
[10]; 30 DAT
  Efficacy (%): 23%
[10]; 60 DAT
  Efficacy (%): 15%
[11]; 30 DAT
  Efficacy (%): 19%
[11]; 60 DAT
  Efficacy (%): 12%
BIDPI = Bidens pilosa; 30 DAT
  Efficacy (%): 25%
BIDPI = Bidens pilosa; 60 DAT
  Efficacy (%): 21%
[12]; 774 g ae/ha
  Average Overall Injury (%): 1%
[13]; 14 DAT, 774 g ae/ha
  Average Overall Injury (%): 34%
[13]; 25 DAT, 774 g ae/ha
  Average Overall Injury (%): 16%
[14]; 774 g ae/ha
  Average Overall Injury (%): 1%
[15]; 774 g ae/ha
  Average Overall Injury (%): 0%
[16]; 774 g ae/ha
  Average Overall Injury (%): 0%
[17]; 774 g ae/ha
  Average Overall Injury (%): 0%

## Cc1cnc(C2=NC(=O)C(C)(C(C)C)N2)c(C(=O)O)c1 (stereo not drawn) [Imazapic, imazapic]
[6]; 30 DAT
  Efficacy (%): 85%
[6]; 60 DAT
  Efficacy (%): 79%
[7]; 30 DAT
  Efficacy (%): 95%
[7]; 60 DAT
  Efficacy (%): 86%
CYPRO = Cyperus rotundus [18]; 30 DAT
  Efficacy (%): 88%
CYPRO = Cyperus rotundus [18]; 60 DAT
  Efficacy (%): 76%
[8]; 30 DAT
  Efficacy (%): 75%
[8]; 60 DAT
  Efficacy (%): 64%
[9]; 30 DAT
  Efficacy (%): 98%
[9]; 60 DAT
  Efficacy (%): 86%
[10]; 30 DAT
  Efficacy (%): 75%
[10]; 60 DAT
  Efficacy (%): 73%
[11]; 30 DAT
  Efficacy (%): 84%
[11]; 60 DAT
  Efficacy (%): 78%
BIDPI = Bidens pilosa; 30 DAT
  Efficacy (%): 79%
BIDPI = Bidens pilosa; 60 DAT
  Efficacy (%): 73%
[12]; 20 g ai/ha
  Average Overall Injury (%): 83%
[12]; 40 g ai/ha
  Average Overall Injury (%): 87%
[12]; 80 g ai/ha
  Average Overall Injury (%): 93%
[12]; 160 g ai/ha
  Average Overall Injury (%): 99%
[12]; 240 g ai/ha
  Average Overall Injury (%): 99%
[13]; 14 DAT, 20 g ai/ha
  Average Overall Injury (%): 56%
[13]; 14 DAT, 40 g ai/ha
  Average Overall Injury (%): 59%
[13]; 14 DAT, 80 g ai/ha
  Average Overall Injury (%): 80%
[13]; 14 DAT, 160 g ai/ha
  Average Overall Injury (%): 92%
[13]; 14 DAT, 240 g ai/ha
  Average Overall Injury (%): 94%
[13]; 25 DAT, 20 g ai/ha
  Average Overall Injury (%): 27%
[13]; 25 DAT, 40 g ai/ha
  Average Overall Injury (%): 28%
[13]; 25 DAT, 80 g ai/ha
  Average Overall Injury (%): 69%
[13]; 25 DAT, 160 g ai/ha
  Average Overall Injury (%): 77%
[13]; 25 DAT, 240 g ai/ha
  Average Overall Injury (%): 88%
[14]; 20 g ai/ha
  Average Overall Injury (%): 35%
[14]; 40 g ai/ha
  Average Overall Injury (%): 61%
[14]; 80 g ai/ha
  Average Overall Injury (%): 71%
[14]; 160 g ai/ha
  Average Overall Injury (%): 87%
[14]; 240 g ai/ha
  Average Overall Injury (%): 96%
[15]; 20 g ai/ha
  Average Overall Injury (%): 32%
[15]; 40 g ai/ha
  Average Overall Injury (%): 38%
[15]; 80 g ai/ha
  Average Overall Injury (%): 67%
[15]; 160 g ai/ha
  Average Overall Injury (%): 86%
[15]; 240 g ai/ha
  Average Overall Injury (%): 90%
[16]; 20 g ai/ha
  Average Overall Injury (%): 65%
[16]; 40 g ai/ha
  Average Overall Injury (%): 90%
[16]; 80 g ai/ha
  Average Overall Injury (%): 99%
[16]; 160 g ai/ha
  Average Overall Injury (%): 99%
[16]; 240 g ai/ha
  Average Overall Injury (%): 99%
[17]; 20 g ai/ha
  Average Overall Injury (%): 12%
[17]; 40 g ai/ha
  Average Overall Injury (%): 39%
[17]; 80 g ai/ha
  Average Overall Injury (%): 60%
[17]; 160 g ai/ha
  Average Overall Injury (%): 70%
[17]; 240 g ai/ha
  Average Overall Injury (%): 81%

## CC(C)C1(C)N=C(c2ncccc2C(=O)O)NC1=O (stereo not drawn) [imazapyr]
CYPRO = Cyperus rotundus [19]; 15 DAT
  Efficacy: 95%
CYPRO = Cyperus rotundus [19]; 30 DAT
  Efficacy: 87%
CYPRO = Cyperus rotundus [19]; 60 DAT
  Efficacy: 81%
[1]; 15 DAT
  Efficacy: 88%
[1]; 30 DAT
  Efficacy: 83%
[1]; 60 DAT
  Efficacy: 75%
[2]; 15 DAT
  Efficacy: 93%
[2]; 30 DAT
  Efficacy: 87%
[2]; 60 DAT
  Efficacy: 80%
[3]; 15 DAT
  Efficacy: 92%
[3]; 30 DAT
  Efficacy: 85%
[3]; 60 DAT
  Efficacy: 83%
SIDRH = Sida rombifolia; 15 DAT
  Efficacy: 94%
SIDRH = Sida rombifolia; 30 DAT
  Efficacy: 87%
SIDRH = Sida rombifolia; 60 DAT
  Efficacy: 81%
[4]; 15 DAT
  Efficacy: 86%
[4]; 30 DAT
  Efficacy: 83%
[4]; 60 DAT
  Efficacy: 77%
[5]; 15 DAT
  Efficacy: 96%
[5]; 30 DAT
  Efficacy: 91%
[5]; 60 DAT
  Efficacy: 85%
[12]; 20 g ai/ha
  Average Overall Injury (%): 96%
[12]; 40 g ai/ha
  Average Overall Injury (%): 98%
[12]; 80 g ai/ha
  Average Overall Injury (%): 99%
[12]; 120 g ai/ha
  Average Overall Injury (%): 100%
[12]; 240 g ai/ha
  Average Overall Injury (%): 100%
[13]; 14 DAT, 20 g ai/ha
  Average Overall Injury (%): 70%
[13]; 14 DAT, 40 g ai/ha
  Average Overall Injury (%): 79%
[13]; 14 DAT, 80 g ai/ha
  Average Overall Injury (%): 90%
[13]; 14 DAT, 120 g ai/ha
  Average Overall Injury (%): 96%
[13]; 14 DAT, 240 g ai/ha
  Average Overall Injury (%): 97%
[13]; 25 DAT, 20 g ai/ha
  Average Overall Injury (%): 44%
[13]; 25 DAT, 40 g ai/ha
  Average Overall Injury (%): 73%
[13]; 25 DAT, 80 g ai/ha
  Average Overall Injury (%): 97%
[13]; 25 DAT, 120 g ai/ha
  Average Overall Injury (%): 99%
[13]; 25 DAT, 240 g ai/ha
  Average Overall Injury (%): 99%
[14]; 20 g ai/ha
  Average Overall Injury (%): 75%
[14]; 40 g ai/ha
  Average Overall Injury (%): 96%
[14]; 80 g ai/ha
  Average Overall Injury (%): 97%
[14]; 120 g ai/ha
  Average Overall Injury (%): 98%
[14]; 240 g ai/ha
  Average Overall Injury (%): 99%
[15]; 20 g ai/ha
  Average Overall Injury (%): 37%
[15]; 40 g ai/ha
  Average Overall Injury (%): 47%
[15]; 80 g ai/ha
  Average Overall Injury (%): 65%
[15]; 120 g ai/ha
  Average Overall Injury (%): 81%
[15]; 240 g ai/ha
  Average Overall Injury (%): 91%
[16]; 20 g ai/ha
  Average Overall Injury (%): 46%
[16]; 40 g ai/ha
  Average Overall Injury (%): 63%
[16]; 80 g ai/ha
  Average Overall Injury (%): 84%
[16]; 120 g ai/ha
  Average Overall Injury (%): 96%
[16]; 240 g ai/ha
  Average Overall Injury (%): 88%
[17]; 20 g ai/ha
  Average Overall Injury (%): 41%
[17]; 40 g ai/ha
  Average Overall Injury (%): 43%
[17]; 80 g ai/ha
  Average Overall Injury (%): 66%
[17]; 120 g ai/ha
  Average Overall Injury (%): 83%
[17]; 240 g ai/ha
  Average Overall Injury (%): 87%
